# In publication PMC4426677, “Tubulin structure-based drug design for the development of novel 4β-sulfur-substituted podophyllum tubulin inhibitors with anti-tumor activity” (Scientific Reports, 2015):
# Entries after “also recorded” stand apart in the source; their conditions may differ. Read-outs that look alike come from different tables or passages of the source.
# Key:
# [1] = system: human gastric carcinoma cell line BGC-823; assay: MTT cytotoxicity assay, BGC-823; assay type: cell-based; conditions: read-out: Cytotoxic activity (IC50) BGC-823
# Protocol: (§1) Cytotoxicity assays were performed on the human gastric carcinoma cell line BGC-823, the human lung adenocarcinoma cell line A549, the human hepatocellular liver carcinoma HepG2, and the normal human hepatic immortal cell line HL-7702. Cells (3500–13,000) were seeded into 96-well microtest plates in 100 μL of culture medium per well (Falcon, CA). The cells were treated in triplicate with a gradient concentration of test compounds and incubated at 37 °C in RPMI-1640 with 100 mg L^−1 kanamycin and 10% (v/v) fetal bovine serum in a humidified atmosphere containing 5% CO2 for 48 h. The plating efficiencies of the untreated cells varied between experiments with values ranging from 14 to 31% for the HL-7702 cells. For all cell lines, microculture tetrazolium [3-(4, 5-dimethylthiazol-2-yl)−2, 5-diphenyltetrazolium bromide, MTT; Sigma, St. Louis, MO] assay was performed to measure cytotoxic effects. […] The initial seeding densities varied among the cell lines to ensure a final absorbance reading in control (untreated) cultures within the range of 0.6–0.8 A492 units. […] Each test was performed in triplicate, and the absorbance readings between the triplicates varied by no more than 5%.
# (§2) Data presented as means ± SD. Statistical analyses were performed by the analysis of variance (ANOVA). All statistical analyses were performed using Origin version 8.0 ([…], OriginLab Corp., Northampton, MA, USA). Sigmoidal dose responses and non-linear regression analyses were undertaken to identify half-maximal concentrations for each of the drugs. To evaluate differences in IC50 concentrations, analysis of variance combined with Tukey’s multiple range test was used.
# [2] = system: human lung adenocarcinoma cell line A549; assay: MTT cytotoxicity assay, A549; assay type: cell-based; conditions: read-out: Cytotoxic activity (IC50) A549
# Protocol: as §1, §2
# [3] = system: human hepatocellular liver carcinoma HepG2; assay: MTT cytotoxicity assay, HepG2; assay type: cell-based; conditions: read-out: Cytotoxic activity (IC50) HepG2
# Protocol: as §1, §2
# [4] = MTT cytotoxicity assay, normal human cells HL-7720; assay type: cell-based; conditions: drug exposure 48 h, mean ± SD (n = 3), read-out: Cytotoxic activity (IC50) HL-7720
# Protocol: as §1, §2
# calf brain tubulin = assay: Tubulin assembly inhibition, centrifugation assay; assay type: biochemical; conditions: 30 min at 37 °C, read-out: GI50, inhibition of tubulin polymerization
# Protocol: (§3) The degree of tubulin polymerization was evaluated through pellet mass formation in centrifugation assays in the presence of stoichiometric and semi-stoichiometric concentrations of each lignan.
# Purification of calf brain tubulin and chemicals were followed as previously described by Andreu[20]. Ligands were dissolved in DMSO at 20 mM and kept at −80 °C. Work solutions were done in DMSO and kept at −20 °C. The 50% inhibitory ligand concentration of tubulin assembly was determined with a centrifugation assay. Tubulin was equilibrated prior to use in 3.4 M glycerol, 1 mM EGTA, 0.1 mM GTP, pH 7.0, buffer through a 25 cm × 0.9 cm Sephadex G-25 column. Aggregates were removed by a centrifugation at 90000 g × 10 min in a TLA 120 rotor at 4 °C in an Optima TLX centrifuge. Tubulin concentration was determined as described by Andreu[21]. Tubulin was kept at 4 °C, and 0.9 mM GTP and 6 mM MgCl2 were added to the sample. The solution was distributed in 200 μL polycarbonate tubes for the TL100 rotor. […] Microtubules were separated from unassembled tubulin by a centrifugation at 90000 g × 10 min in a TLA100 rotor at 37 °C in an Optima TLX centrifuge. […] The 50% inhibitory ligand concentration of tubulin assembly was determined with a centrifugation assay that measured the decrease in the concentrations of microtubules assembled in the presence of different concentrations of the compound.
# tubulin = assay: Surface plasmon resonance binding to immobilized tubulin; conditions: 1:1 Langmuir model, HBS-T buffer pH 7.4; read-out: equilibrium dissociation constant (KD value), SPR
# Protocol: as §3
# Based on the surface plasmon resonance (SPR) technology, the binding affinity of compounds to tubulin was determined with the ProteOn^TM XPR36 Protein Interaction Array System (Bio-Rad, Hercules, CA). For this purpose, tubulin was dissolved in 10 mM sodium acetate buffer (pH 3.5) and immobilized to the ProteOn^TM GLH sensor chip with the ProteOn^TM amine coupling kit. The final immobilization level was 8000 RU (Response unit). […] Data were analyzed with the ProteOn^TM Manager software, fitted to the 1:1 Langmuir model.
# A549 cells [5] = assay: Cell cycle analysis (PI staining, flow cytometry); assay type: cell-based, human; conditions: for G2/M phase arrest ratio: after 24 h incubation until end of incubation
# Protocol: Tubulin inhibitors block cell cycle progression in mitosis at the G2/M phase, and a prolonged mitotic arrest triggers various apoptotic pathways. […] After 24 h incubations, the G2/M phase arrest ratio remained at around 80% and 90% until the end of the incubation.
# Cell cycle arrest detection in A549 cells using propidium iodide (PI) double staining treatment with different concentrations of 4-TG-PTOX (i.e., 0.1, 1, and 5 μM) for 6, 12, 24, 48 h, respectively. The A549 cell line was used for cell cycle analysis. Cells were treated in triplicate with a gradient concentration of test compounds and incubated at 37 °C in RPMI-1640 with 100 mg L^−1 kanamycin and 10% (v/v) fetal bovine serum in a humidified atmosphere containing 5% CO2 for 48 h. Untreated and drug-treated cells were centrifuged and fixed overnight in 70% ethanol at 4 °C. They were then washed three times with PBS, incubated for 1 h with 1 mg/ mL RNase A and […] propidium iodide at room temperature, and analyzed with a FACSCalibur flow cytometer (BD, USA).
# A549 cells [6] = assay: Cell apoptosis analysis (annexin V/PI flow cytometry); assay type: cell-based, human; conditions: for maximum level of apoptosis: 48 h
# Protocol: After 48 h of treatment with 4-TG-PTOX, the maximum levels of apoptosis reached were 63% and 67% at 4-TG-PTOX concentrations of 1 and 5 µM, respectively.
# Cell apoptosis-inducing detection in A549 cells treatment with different concentrations of 4-TG-PTOX (i.e., 0.1, 1, and 5 μM) for 6, 12, 24, 48 h, respectively. In the early stages of apoptosis, phosphatidylserine (PS) was translocated from the inside of the cell membrane to the outside. Annexin V, a calcium dependent phospholipid-binding protein associated with a high affinity for phosphatidylserine, was used to detect early apoptotic cells. Propidine Iodide (PI) was a red fluorescent dye and stained cells that had lost membrane integrity. So, cells stained with FITC-annexin V and PI were discriminated necrotic cells (Q1, Annexin-/PI +), late apoptotic cells (Q2, Annexin +/PI+), intact cells (Q3, Annexin -/PI -) and early apoptotic cells (Q4, Annexin+/PI -).
# A549 cells [7] = assay: Immunofluorescence staining of tubulin and nuclei; assay type: cell-based, human; conditions: 1 μM, 12 hours
# Protocol: as §3
# Cells were fixed with 4% paraformaldehyde in phospate buffered saline (PBS), permeabilized with 0.5% Triton X-100 in PBS, and then tubulin was immunostained with monoclonal antibody to tubulin (B5-1-2, Sigma) followed by fluorescein 5-isothiocyanate (FITC) conjugated secondary antibody. Nuclei were labeled with 4′, 6-diamidino-2-phenylindole (DAPI). Fluorescence labeled tubulin and nuclei were observed using a Zeiss Axioplan fluorescence microscope, and images were captured by a XL16 Excel cooled digital camera controlled by the Dage Exponent software (Dage-MTI). Final images were prepared using Adobe Photoshop. The cells were then processed for immunofluoscence staining and confocal microscopy (× 600).
# [8] = BGC-823, MTT, drug exposure 48 h, mean ± SD (n = 3)
# [9] = A549, MTT, drug exposure 48 h, mean ± SD (n = 3)
# [10] = HepG2, MTT, drug exposure 48 h, mean ± SD (n = 3)
Compound,"IC50 [1, 8]","IC50 [2, 9]","IC50 [3, 10]",IC50 at 48 h [4],GI50 (calf brain tubulin),Kd (tubulin),"G2/M phase arrest (A549 cells [5]; A549, 0.1 μM)","G2/M phase arrest ratio (A549 cells [5]; A549, 1 μM)","G2/M phase arrest ratio (A549 cells [5]; A549, 5 μM)","ratio of apoptotic cells (A549 cells [6]; A549, 0.1 μM)","maximum level of apoptosis (A549 cells [6]; A549, 1 µM)","maximum level of apoptosis (A549 cells [6]; A549, 5 µM)",effect on cellular microtubules (immunofluorescence) (A549 cells [7]),effect on nucleus (DAPI) (A549 cells [7]),"IC50 ([1]; BGC-823, 48 h)","IC50 ([2]; A549, 48 h)","IC50 ([3]; HepG2, 48 h)"
"COc1cc([C@@H]2c3cc4c(cc3[C@H](O)[C@H]3COC(=O)[C@H]23)OCO4)cc(OC)c1OC [PTOX, podophyllotoxin]",18.3 ± 2.22 µM,20.2 ± 2.75 µM,8.36 ± 1.42 µM,4.31 ± 1.46 µM,,,,,,,,,,,,,
COc1cc(C2c3cc4c(cc3C(Sc3nc(N)nc5nc[nH]c35)C3COC(=O)C23)OCO4)cc(OC)c1OC (centres unmarked) [Compound 4-TG-PTOX],4.4 ± 1.55 µM,0.57 ± 0.92 µM,0.3 ± 0.34 µM,13.5 ± 2.41 µM,< 1 µM,6.2 µM,arrested after 12 h and strongly arrested after 24 and 48 h,around 80%,~90%,unaffected,63%,67%,anti-microtubule activity was observed; also recorded: inhibited tubulin polymerization,not damaged,,,
"COC(=O)Nc1nc2ccc(C(=O)c3cccs3)cc2[nH]1 [Nocodazole, nocodazole]",,,,8.51 ± 1.73 µM,,,,,,,,,,,38.9 ± 3.12 µM,27.4 ± 2.92 µM,18.4 ± 3.71 µM
"COc1cc2c(c(OC)c1OC)-c1ccc(OC)c(=O)cc1[C@@H](NC(C)=O)CC2 [Colchicines, colchicine]",12.2 ± 1.26 µM,12.2 ± 0.76 µM,13.2 ± 0.88 µM,6.42 ± 1.03 µM,,,,,,,,,inhibited tubulin polymerization,,,,
COc1cc(C2c3cc4c(cc3C(Sc3ncnc5nc[nH]c35)C3COC(=O)C23)OCO4)cc(OC)c1OC (centres unmarked) [Compound 4-MP-PTOX],8.72 ± 3.15 µM,1.12 ± 0.35 µM,1.14 ± 1.07 µM,11.3 ± 0.57 µM,< 2 µM,8.7 µM,,,,,,,anti-microtubule activity was observed; also recorded: inhibited tubulin polymerization,not damaged,,,
